In patent publication US10428080B2, “TBK/IKK inhibitor compounds and uses thereof” (Merck Patent GmbH, priority 2015, dated 2019):
Where a name gives a salt, the structure may show the parent alone. Read-outs that look alike come from different tables or passages of the source.

Columns and labels:
[1] = system: phosphorylation of the IRF-3 protein in MDA-MB-468 cells; experiment: pIRF3 immunocytochemistry cell based assay; conditions: Homo sapiens
Procedure, shortened: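 After 2 h stimulation with Poly(I:C) (10 ug/ml), following 1 h compound pre-treatment (10-point, 3-fold dilution, top 10 uM), MDA-MB-468 cells were fixed and stained with anti-pIRF3 antibody. pIRF3 fluorescence was normalized to PI staining or cell count on an Acumen cytometer. IC50 curves were derived from this.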

TBK1 = biological target: T1, TBK1 (Homo sapiens, UniProt Q9UHD2); experiment: TBK Biochemical Assay; conditions: read-out: TBK1 IC50
T1 sequence (Q9UHD2 1-729): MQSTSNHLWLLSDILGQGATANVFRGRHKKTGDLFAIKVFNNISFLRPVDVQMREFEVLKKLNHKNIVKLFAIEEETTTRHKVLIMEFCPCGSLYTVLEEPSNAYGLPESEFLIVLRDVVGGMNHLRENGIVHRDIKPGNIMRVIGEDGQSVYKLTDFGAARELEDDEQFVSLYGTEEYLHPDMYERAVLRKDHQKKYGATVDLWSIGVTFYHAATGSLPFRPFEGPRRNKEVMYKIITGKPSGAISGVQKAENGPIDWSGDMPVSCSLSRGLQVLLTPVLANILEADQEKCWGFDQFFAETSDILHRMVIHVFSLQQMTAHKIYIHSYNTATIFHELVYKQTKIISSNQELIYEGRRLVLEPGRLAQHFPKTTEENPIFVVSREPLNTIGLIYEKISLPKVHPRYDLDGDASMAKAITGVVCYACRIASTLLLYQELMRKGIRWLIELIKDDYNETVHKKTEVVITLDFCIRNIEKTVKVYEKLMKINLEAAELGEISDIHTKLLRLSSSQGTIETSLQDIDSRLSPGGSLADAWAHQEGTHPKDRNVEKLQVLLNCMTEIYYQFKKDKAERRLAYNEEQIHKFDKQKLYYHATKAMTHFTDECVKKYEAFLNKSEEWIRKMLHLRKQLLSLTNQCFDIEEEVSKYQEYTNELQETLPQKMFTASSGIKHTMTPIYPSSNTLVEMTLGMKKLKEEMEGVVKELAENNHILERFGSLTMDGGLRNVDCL
Procedure, shortened: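 Caliper LabChip mobility-shift readout of substrate and product after 90 min of TBK1 reaction at 25° C and stop-buffer addition. Compounds tested in 1:4 serial dilution over 10 points from 30 uM final at 1% DMSO; staurosporine 10 uM final defines full inhibition.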

IKKε = biological target: T2, IKKε (Homo sapiens, UniProt Q14164); experiment: IKKe Biochemical Assay; conditions: read-out: IKKε IC50
T2 sequence (Q14164 1-716): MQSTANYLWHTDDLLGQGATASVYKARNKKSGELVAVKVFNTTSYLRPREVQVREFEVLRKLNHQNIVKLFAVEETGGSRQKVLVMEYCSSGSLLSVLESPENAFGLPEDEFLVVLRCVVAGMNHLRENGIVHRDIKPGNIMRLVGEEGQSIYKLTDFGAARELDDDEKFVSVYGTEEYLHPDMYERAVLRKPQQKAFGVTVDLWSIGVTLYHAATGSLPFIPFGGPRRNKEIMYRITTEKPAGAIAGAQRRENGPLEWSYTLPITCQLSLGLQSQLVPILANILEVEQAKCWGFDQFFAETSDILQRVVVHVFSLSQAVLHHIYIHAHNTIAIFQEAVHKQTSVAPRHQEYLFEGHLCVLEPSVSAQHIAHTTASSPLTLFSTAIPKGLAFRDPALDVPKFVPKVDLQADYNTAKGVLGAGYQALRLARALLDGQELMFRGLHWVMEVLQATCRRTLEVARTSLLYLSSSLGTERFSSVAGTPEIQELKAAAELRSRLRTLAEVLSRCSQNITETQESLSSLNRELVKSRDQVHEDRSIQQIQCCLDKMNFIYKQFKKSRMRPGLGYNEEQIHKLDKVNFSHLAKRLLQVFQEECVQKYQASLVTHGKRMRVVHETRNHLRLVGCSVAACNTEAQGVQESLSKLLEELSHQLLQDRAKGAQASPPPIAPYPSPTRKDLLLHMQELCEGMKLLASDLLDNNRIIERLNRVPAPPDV
Procedure, shortened: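 Activity was measured as mobility-shift separation of phosphorylated from unphosphorylated substrate on a LabChip EZ Reader. Compound was titrated from 30 uM final in 10 points, 1:4 steps, with 1% DMSO, and enzyme plus substrate reacted 90 min at 25° C before stop buffer. Control wells held 10 uM staurosporine.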

[2] = MDA-MB-468 cells, Poly(I:C) stimulation, read-out: pIRF3 IC50
[3] = MDA-MB-468, read-out: pIRF3 IC50

## COc1cc(C(=O)N2CC(O)C2)ccc1-c1cc2nccc(-c3ccc(NC4CCOCC4)c(C#N)c3)c2o1 [Compound 101, 5-{2-[4-(3-Hydroxy-azetidine-1-carbonyl)-2-methoxy-phenyl]-furo[3,2-b]pyridin-7-yl}-2-(tetrahydro-pyran-4-ylamino)-benzonitrile]
[1]; [2]
  IC50: 100 to 1000 nM
TBK1
  IC50: < 100 nM
IKKε
  IC50: < 100 nM

## COc1cc(C(=O)N[C@@H]2CC[C@@H]3CN(C)C[C@@H]32)ccc1-c1cc2nccc(-c3ccc(OC4CCOCC4)c(C#N)c3)c2o1 [Compound 373, N-[(3aR,4R,6aS)-2-methyl-octahydrocyclopenta[c]pyrrol-4-yl]-4-[7-[3-cyano-4-(oxan-4-yloxy)phenyl]furo[3,2-b]pyridin-2-yl]-3-methoxybenzamide]
[1]; [2]
  IC50: < 100 nM
TBK1
  IC50: < 100 nM
IKKε
  IC50: < 100 nM

## COc1cc(C(=O)N2CCC2)cnc1-c1cc2nccc(-c3ccc(OC4CCOCC4)c(C#N)c3)c2o1 [Compound 415, 5-(2-[5-[(azetidin-1-yl)carbonyl]-3-methoxypyridin-2-yl]furo[3,2-b]pyridin-7-yl)-2-(oxan-4-yloxy)benzonitrile]
[1]; [3]
  IC50: 100 to 1000 nM
TBK1
  IC50: < 100 nM
IKKε
  IC50: < 100 nM

## COc1cc(C(=O)N[C@H]2[C@@H]3C[C@H]2CN(C)C3)cnc1-c1cc2nccc(-c3ccc(OC4CCOCC4)c(C#N)c3)c2o1 [Compound 397, 6-{7-[3-Cyano-4-(tetrahydro-pyran-4-yloxy)-phenyl]-furo[3,2-b]pyridin-2-yl}-5-methoxy-N-((1S,5R,6R)-3-methyl-3-aza-bicyclo[3.10.1]hept-6-yl)-nicotinamide]
[1]; [2]
  IC50: < 100 nM
TBK1
  IC50: < 100 nM
IKKε
  IC50: < 100 nM

## COc1cc(C(=O)N(C)CCO)cnc1-c1cc2nccc(-c3ccc(NC4CCOCC4)c(C#N)n3)c2o1 [Compound 356, 6-(7-[6-cyano-5-[(oxan-4-yl)amino]pyridin-2-yl]furo[3,2-b]pyridin-2-yl)-N-(2-hydroxyethyl)-5-methoxy-N-methylpyridine-3-carboxamide]
[1]; [2]
  IC50: 100 to 1000 nM
TBK1
  IC50: < 100 nM
IKKε
  IC50: < 100 nM

## COc1cc(C(=O)N(C)C)ccc1-c1cc2nccc(-c3ccc(OC4CCCNC4)c(C#N)c3)c2o1 (stereo not drawn) [Compound 140, 4-{7-[3-Cyano-4-(piperidin-3-yloxy)-phenyl]-furo[3,2-b]pyridin-2-yl}-3-methoxy-N,N-dimethyl-benzamide Hydrochloride]
[1]; [2]
  IC50: < 100 nM
TBK1
  IC50: < 100 nM
IKKε
  IC50: < 100 nM

## COc1cc(C(=O)N2C[C@H]3C[C@@H]2CN3C)ccc1-c1cc2nccc(-c3ccc(NC4CCOCC4)c(C#N)c3)c2o1 [Compound 517]
[1]; [2]
  IC50: < 100 nM
TBK1
  IC50: < 100 nM
IKKε
  IC50: < 100 nM

## COc1cc(C(=O)NC2(CO)CCN(C)C2)ccc1-c1cc2nccc(-c3ccc(OC4CCOCC4)c(C#N)c3)c2o1 (stereo not drawn) [Compound 345, 4-[7-[3-cyano-4-(oxan-4-yloxy)phenyl]furo[3,2-b]pyridin-2-yl]-N-[3-(hydroxymethyl)-1-methylpyrrolidin-3-yl]-3-methoxybenzamide]
[1]; [2]
  IC50: 100 to 1000 nM
TBK1
  IC50: < 100 nM
IKKε
  IC50: < 100 nM

## COc1cc(C(=O)NC2CCN(C(=O)OC(C)(C)C)C2)ccc1-c1cc2nccc(-c3ccc(OC4CCOCC4)c(C#N)c3)c2o1 (stereo not drawn) [Compound 125, 3-(4-{7-[3-Cyano-4-(tetrahydro-pyran-4-yloxy)-phenyl]-furo[3,2-b]pyridin-2-yl}-3-methoxy-benzoylamino)-pyrrolidine-1-carboxylic acid tert-butyl ester]
[1]; [2]
  IC50: 100 to 1000 nM
TBK1
  IC50: < 100 nM
IKKε
  IC50: < 100 nM

## COc1cc(C(=O)N2CC[C@@H](F)C2)ccc1-c1cc2nccc(-c3ccc(OC4CCOCC4)c(C#N)c3)c2o1 [Compound 17, 5-{2-[4-((R)-3-Fluoro-pyrrolidine-1-carbonyl)-2-methoxy-phenyl]-furo[3,2-b]pyridin-7-yl}-2-(tetrahydro-pyran-4-yloxy)-benzonitrile]
[1]; [2]
  IC50: 100 to 1000 nM
TBK1
  IC50: < 100 nM
IKKε
  IC50: < 100 nM

## CN(C)C(=O)c1cc(F)c(-c2cc3nccc(-c4ccc(NC5CCOCC5)c(C#N)c4)c3o2)c(F)c1 [Compound 295, 4-(7-[3-cyano-4-[(oxan-4-yl)amino]phenyl]furo[3,2-b]pyridin-2-yl)-3,5-difluoro-N,N-dimethylbenzamide hydrochloride]
[1]; [2]
  IC50: 1000 to 5000 nM
TBK1
  IC50: 100 to 1000 nM
IKKε
  IC50: < 100 nM

## COc1cc(C(=O)NC2C3COCC32)cnc1-c1cc2nccc(-c3ccc(N4CC[C@H](F)C4)c(C#N)c3)c2o1 (stereo in doubt) [Compound 465, 6-[7-[3-cyano-4-(3-fluoropyrrolidin-1-yl)phenyl]furo[3,2-b]pyridin-2-yl]-5-methoxy-N-[3-oxabicyclo[3.1.0]hexan-6-yl]pyridine-3-carboxamide]
[1]; [2]
  IC50: 100 to 1000 nM
TBK1
  IC50: < 100 nM
IKKε
  IC50: < 100 nM

## CN(C)C(=O)c1cc(-c2cc3nccc(-c4ccc(OC5CCOCC5)c(C#N)c4)c3o2)n(C)c1 [Compound 400, 5-[7-[3-cyano-4-(oxan-4-yloxy)phenyl]furo[3,2-b]pyridin-2-yl]-N,N,1-trimethyl-1H-pyrrole-3-carboxamide]
[1]; [3]
  IC50: 100 to 1000 nM
TBK1
  IC50: < 100 nM
IKKε
  IC50: < 100 nM

## COc1cc(C(=O)N(C)C(C)(C)C)ccc1-c1cc2nccc(-c3ccc(OC4CCOCC4)c(C#N)c3)c2o1 [Compound 481, N-tert-Butyl-4-{7-[3-cyano-4-(tetrahydro-pyran-4-yloxy)-phenyl]-furo[3,2-b]pyridin-2-yl}-3-methoxy-N-methyl-benzamide]
[1]; [2]
  IC50: 100 to 1000 nM
TBK1
  IC50: < 100 nM
IKKε
  IC50: < 100 nM

## COc1cc(C(=O)N2CC3COCC3C2)ccc1-c1cc2nccc(-c3ccc(OC4CCOCC4)c(C#N)c3)c2o1 (stereo not drawn) [Compound 504]
[1]; [2]
  IC50: 100 to 1000 nM
TBK1
  IC50: < 100 nM
IKKε
  IC50: < 100 nM

## COc1cc(C(=O)NC2CCNC2)ccc1-c1cc2nccc(-c3ccc(NC4CCOCC4)c(C#N)c3)c2o1 (stereo not drawn) [Compound 130, 4-{7-[3-Cyano-4-(tetrahydro-pyran-4-ylamino)-phenyl]-furo[3,2-b]pyridin-2-yl}-3-methoxy-N-pyrrolidin-3-yl-benzamide]
[1]; [2]
  IC50: 100 to 1000 nM
TBK1
  IC50: < 100 nM
IKKε
  IC50: < 100 nM

## COc1cc(C(=O)N(C)C)ccc1-c1cc2nccc(-c3ccc(OC4CCNCC4(F)F)c(C#N)c3)c2o1 (stereo not drawn) [Compound 71, 4-{7-[3-Cyano-4-(3,3-difluoro-piperidin-4-yloxy)-phenyl]-furo[3,2-b]pyridin-2-yl}-3-methoxy-N,N-dimethyl-benzamide hydrochloride]
[1]; [2]
  IC50: < 100 nM
TBK1
  IC50: < 100 nM
IKKε
  IC50: < 100 nM

## COc1cc(C(=O)NC2CCC(O)C2)ccc1-c1cc2nccc(-c3ccc(OC4CCOCC4)c(C#N)c3)c2o1 (stereo not drawn) [Compound 68, 4-{7-[3-Cyano-4-(tetrahydro-pyran-4-yloxy)-phenyl]-furo[3,2-b]pyridin-2-yl}-N-(3-hydroxy-cyclopentyl)-3-methoxy-benzamide]
[1]; [2]
  IC50: 100 to 1000 nM
TBK1
  IC50: < 100 nM
IKKε
  IC50: < 100 nM

## COc1cc(C(=O)N(C)C)cnc1-c1cc2nccc(-c3ccc(NC4C5COCC54)c(C#N)c3)c2o1 (stereo not drawn) [Compound 436, 6-[7-[3-cyano-4-([3-oxabicyclo[3.1.0]hexan-6-yl]amino)phenyl]furo[3,2-b]pyridin-2-yl]-5-methoxy-N,N-dimethylpyridine-3-carboxamide]
[1]; [2]
  IC50: < 100 nM
TBK1
  IC50: < 100 nM
IKKε
  IC50: < 100 nM
